In brackets after ≈: the same amount, converted by molar mass. Activity calls are given as the source filed them. The rule behind the calls is not given here.
Legend:
[1] = target: T1, Histone H3 methyltransferase DOT1 variant d (Mus musculus) (UniProt Q679P4); assay: Inhibition of DOT1L in mouse bone marrow cell transformed with MLL-AF9 cells assessed as reduction in H3K79 methylation measured after 6 days by Western blot analysis; type: cell-based; conditions: time 6.0 day
T1 sequence (whole entry): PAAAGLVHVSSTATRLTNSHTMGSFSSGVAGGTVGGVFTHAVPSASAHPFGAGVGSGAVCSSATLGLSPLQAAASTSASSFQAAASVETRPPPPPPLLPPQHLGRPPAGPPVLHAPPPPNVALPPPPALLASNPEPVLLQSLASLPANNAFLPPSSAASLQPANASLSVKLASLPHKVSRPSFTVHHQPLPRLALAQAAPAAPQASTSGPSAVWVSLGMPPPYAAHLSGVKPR

[2] = target: Protein arginine N-methyltransferase 8 (Homo sapiens, UniProt Q9NR22); assay: Inhibition of recombinant human PRMT8 using histone H4 as substrate by hotspot assay
[3] = target: T2, Histone-lysine N-methyltransferase SETD7 (Homo sapiens, UniProt Q8WTS6); assay: Inhibition of recombinant human SET7/9 using core histone as substrate by hotspot assay
T2 sequence (Q8WTS6 whole entry): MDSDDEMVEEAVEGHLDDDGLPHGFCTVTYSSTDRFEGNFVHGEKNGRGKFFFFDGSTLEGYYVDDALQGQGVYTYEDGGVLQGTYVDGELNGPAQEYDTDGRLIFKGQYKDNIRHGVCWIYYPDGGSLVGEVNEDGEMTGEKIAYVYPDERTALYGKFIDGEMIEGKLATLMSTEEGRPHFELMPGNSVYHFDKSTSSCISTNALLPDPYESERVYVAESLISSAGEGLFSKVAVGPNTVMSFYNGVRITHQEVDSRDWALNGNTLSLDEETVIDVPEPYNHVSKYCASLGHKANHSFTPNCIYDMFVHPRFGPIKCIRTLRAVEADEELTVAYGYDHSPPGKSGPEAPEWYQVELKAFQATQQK

[4] = test system: Bone marrow cell; assay: Antiproliferative activity against mouse bone marrow cell transformed with MLL-AF9 assessed as reduction in cell growth measured after 11 days by hemocytometry; type: functional, cell-based; conditions: 264 h
[5] = target: DNA (cytosine-5)-methyltransferase 1 (Homo sapiens, UniProt P26358); assay: Inhibition of recombinant human DNMT1 using poly(dl-dC) as substrate by hotspot assay; conditions: read-out: IC50
[6] = target: Histone-lysine N-methyltransferase, H3 lysine-79 specific (Homo sapiens, UniProt Q8TEK3); assay: Inhibition of recombinant human N-terminal GST-tagged DOT1L (1 to 420 residues) expressed in Escherichia coli BL21 (DE3) using histone as substrate incubated for 1 hr by MTase-glo based luminescence assay
[7] = test system: Bone marrow cell; assay: Antiproliferative activity against mouse bone marrow cell transformed with MLL-AF9 assessed as reduction in cell growth measured after 6 days by hemocytometry; type: functional, cell-based; conditions: 144 h
[8] = Aqueous solubility of compound; type: physicochemical
[9] = test system: Bone marrow cell; assay: Antiproliferative activity against mouse bone marrow cell transformed with E2A-HLF assessed as reduction in cell growth at 1 to 30 uM measured after 15 days by hemocytometry; type: functional, cell-based; conditions: dose 1-30 µM, time 15.0 day
[10] = target: T3, Histone-lysine N-methyltransferase EHMT2 (Homo sapiens, UniProt Q96KQ7); assay: Inhibition of recombinant human G9a using histone H3 (1 to 21) as substrate by hotspot assay
T3 sequence (Q96KQ7 whole entry): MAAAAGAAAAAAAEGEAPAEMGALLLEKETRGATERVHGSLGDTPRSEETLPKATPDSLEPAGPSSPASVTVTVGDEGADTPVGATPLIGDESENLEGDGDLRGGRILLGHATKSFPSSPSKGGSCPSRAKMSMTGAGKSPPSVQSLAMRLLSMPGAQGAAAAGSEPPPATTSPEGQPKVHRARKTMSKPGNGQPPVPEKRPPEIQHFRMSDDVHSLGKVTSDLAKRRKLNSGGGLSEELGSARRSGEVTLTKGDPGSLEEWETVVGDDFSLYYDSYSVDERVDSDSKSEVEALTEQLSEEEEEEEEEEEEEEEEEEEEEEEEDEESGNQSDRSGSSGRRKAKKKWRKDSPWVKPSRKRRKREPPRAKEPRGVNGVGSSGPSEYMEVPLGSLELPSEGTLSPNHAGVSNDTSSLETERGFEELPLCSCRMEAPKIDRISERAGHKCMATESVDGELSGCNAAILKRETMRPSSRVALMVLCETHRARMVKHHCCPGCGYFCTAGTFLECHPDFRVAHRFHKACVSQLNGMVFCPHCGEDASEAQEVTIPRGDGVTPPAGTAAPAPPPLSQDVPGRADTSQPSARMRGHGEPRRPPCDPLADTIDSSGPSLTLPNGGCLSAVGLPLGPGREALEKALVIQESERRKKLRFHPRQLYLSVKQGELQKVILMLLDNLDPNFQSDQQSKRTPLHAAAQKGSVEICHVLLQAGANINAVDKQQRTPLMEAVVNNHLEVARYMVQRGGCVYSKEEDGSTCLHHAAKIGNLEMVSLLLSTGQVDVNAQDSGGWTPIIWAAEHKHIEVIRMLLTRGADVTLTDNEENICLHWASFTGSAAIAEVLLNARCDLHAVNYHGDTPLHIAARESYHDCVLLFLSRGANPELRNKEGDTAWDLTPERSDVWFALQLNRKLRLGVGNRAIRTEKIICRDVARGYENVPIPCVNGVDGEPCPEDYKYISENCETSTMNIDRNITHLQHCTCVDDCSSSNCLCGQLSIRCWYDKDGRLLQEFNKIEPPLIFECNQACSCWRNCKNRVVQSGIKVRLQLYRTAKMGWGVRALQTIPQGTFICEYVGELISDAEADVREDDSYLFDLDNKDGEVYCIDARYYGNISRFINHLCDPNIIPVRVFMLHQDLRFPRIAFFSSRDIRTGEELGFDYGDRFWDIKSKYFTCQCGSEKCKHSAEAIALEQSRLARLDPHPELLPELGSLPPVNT

Histone-lysine N-methyltransferase, H3 lysine-79 specific, sequence (Q8TEK3 whole entry, the tested form may be a part): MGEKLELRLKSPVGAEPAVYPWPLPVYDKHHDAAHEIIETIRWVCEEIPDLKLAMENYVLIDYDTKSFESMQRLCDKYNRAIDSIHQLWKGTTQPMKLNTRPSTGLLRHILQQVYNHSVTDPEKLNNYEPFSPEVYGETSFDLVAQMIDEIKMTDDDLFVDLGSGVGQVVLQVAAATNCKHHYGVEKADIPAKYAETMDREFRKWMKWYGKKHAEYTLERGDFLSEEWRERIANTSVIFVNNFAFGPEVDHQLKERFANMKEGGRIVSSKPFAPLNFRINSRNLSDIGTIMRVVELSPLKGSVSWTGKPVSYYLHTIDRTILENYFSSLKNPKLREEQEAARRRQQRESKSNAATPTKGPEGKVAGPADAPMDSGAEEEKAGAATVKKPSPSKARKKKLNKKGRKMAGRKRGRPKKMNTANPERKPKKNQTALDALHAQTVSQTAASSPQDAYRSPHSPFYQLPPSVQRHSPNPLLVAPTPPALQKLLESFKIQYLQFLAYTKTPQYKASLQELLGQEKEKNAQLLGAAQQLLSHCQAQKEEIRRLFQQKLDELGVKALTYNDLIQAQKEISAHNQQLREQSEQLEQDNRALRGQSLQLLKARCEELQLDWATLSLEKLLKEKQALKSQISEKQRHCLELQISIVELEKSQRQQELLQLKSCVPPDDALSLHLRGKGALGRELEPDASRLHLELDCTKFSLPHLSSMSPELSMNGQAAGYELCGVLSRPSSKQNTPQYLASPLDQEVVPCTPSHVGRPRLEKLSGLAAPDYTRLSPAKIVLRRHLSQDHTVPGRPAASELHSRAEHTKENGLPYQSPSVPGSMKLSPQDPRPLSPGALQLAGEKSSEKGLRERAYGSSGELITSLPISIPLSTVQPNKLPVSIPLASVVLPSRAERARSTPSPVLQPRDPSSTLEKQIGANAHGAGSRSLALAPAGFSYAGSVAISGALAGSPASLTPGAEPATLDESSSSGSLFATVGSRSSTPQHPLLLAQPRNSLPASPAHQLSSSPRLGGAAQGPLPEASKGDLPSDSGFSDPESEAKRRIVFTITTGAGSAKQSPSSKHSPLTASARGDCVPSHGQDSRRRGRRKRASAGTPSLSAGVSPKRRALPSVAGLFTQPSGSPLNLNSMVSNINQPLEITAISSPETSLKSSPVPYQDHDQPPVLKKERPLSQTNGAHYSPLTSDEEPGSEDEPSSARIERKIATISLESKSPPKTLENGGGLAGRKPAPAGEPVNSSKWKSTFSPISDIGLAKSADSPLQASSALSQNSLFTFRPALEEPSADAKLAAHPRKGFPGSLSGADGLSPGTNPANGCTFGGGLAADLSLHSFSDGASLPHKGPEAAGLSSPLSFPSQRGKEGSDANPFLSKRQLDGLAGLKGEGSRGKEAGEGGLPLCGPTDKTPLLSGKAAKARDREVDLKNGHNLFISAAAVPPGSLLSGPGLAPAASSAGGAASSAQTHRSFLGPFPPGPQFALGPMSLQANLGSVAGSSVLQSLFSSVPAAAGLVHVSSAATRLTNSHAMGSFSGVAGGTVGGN
DNA (cytosine-5)-methyltransferase 1, sequence (P26358 whole entry, the tested form may be a part): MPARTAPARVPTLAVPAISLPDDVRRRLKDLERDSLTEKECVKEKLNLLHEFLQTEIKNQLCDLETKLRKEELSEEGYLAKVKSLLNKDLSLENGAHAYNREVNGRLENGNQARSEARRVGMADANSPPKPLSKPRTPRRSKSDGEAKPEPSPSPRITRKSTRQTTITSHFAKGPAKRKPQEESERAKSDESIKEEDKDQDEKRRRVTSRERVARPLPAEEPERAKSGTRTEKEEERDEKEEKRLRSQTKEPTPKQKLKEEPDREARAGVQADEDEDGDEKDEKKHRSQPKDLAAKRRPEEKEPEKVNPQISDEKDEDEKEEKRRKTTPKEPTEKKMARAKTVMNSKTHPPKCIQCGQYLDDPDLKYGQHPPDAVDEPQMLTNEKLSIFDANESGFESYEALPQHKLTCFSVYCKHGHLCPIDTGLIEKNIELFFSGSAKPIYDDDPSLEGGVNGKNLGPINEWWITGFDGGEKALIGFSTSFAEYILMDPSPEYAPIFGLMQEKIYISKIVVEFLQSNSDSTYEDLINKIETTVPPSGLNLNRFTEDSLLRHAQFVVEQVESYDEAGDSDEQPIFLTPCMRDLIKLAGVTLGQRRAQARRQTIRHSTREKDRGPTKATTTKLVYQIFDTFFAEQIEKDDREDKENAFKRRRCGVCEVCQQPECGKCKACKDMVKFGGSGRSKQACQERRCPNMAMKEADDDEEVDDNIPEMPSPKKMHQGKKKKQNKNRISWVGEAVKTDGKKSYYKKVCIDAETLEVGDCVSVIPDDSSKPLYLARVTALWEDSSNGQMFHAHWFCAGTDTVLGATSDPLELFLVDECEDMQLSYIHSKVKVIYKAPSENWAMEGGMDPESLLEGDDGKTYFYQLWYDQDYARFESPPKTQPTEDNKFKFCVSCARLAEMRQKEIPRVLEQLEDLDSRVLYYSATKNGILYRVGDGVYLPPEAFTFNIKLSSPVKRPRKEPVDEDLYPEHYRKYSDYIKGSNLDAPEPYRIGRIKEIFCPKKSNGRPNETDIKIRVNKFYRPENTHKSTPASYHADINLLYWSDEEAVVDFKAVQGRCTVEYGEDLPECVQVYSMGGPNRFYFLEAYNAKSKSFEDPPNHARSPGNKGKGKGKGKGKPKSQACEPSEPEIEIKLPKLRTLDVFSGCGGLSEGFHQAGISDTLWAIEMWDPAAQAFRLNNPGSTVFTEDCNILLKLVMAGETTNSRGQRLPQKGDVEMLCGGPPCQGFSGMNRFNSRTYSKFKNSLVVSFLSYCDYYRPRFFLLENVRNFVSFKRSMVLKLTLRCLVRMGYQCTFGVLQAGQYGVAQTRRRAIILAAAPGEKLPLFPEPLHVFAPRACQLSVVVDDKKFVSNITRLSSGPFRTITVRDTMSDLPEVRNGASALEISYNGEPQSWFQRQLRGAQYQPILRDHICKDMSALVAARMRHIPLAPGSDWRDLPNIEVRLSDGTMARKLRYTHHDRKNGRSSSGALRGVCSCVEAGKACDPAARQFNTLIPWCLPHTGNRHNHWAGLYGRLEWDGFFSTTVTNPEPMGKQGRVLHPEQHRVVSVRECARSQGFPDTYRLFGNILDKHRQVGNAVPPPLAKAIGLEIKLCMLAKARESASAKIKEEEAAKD
Protein arginine N-methyltransferase 8, sequence (Q9NR22 whole entry): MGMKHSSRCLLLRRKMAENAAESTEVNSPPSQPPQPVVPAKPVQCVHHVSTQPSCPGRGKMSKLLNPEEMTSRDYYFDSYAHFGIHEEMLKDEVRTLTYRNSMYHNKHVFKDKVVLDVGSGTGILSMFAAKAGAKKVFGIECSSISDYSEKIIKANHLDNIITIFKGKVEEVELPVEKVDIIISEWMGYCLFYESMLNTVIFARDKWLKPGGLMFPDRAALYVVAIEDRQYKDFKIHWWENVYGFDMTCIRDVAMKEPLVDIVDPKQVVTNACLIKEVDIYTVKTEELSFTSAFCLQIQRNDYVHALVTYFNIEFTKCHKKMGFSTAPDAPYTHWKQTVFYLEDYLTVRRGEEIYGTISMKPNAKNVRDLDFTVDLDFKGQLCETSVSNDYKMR

In the case of `CC(C)(C)c1ccc(NC(=O)c2ncn(CC(=O)NCCn3ccc4c(N)ncnc43)n2)cc1`, the inhibition [1] is reported as “Dose-dependent effect”, the IC50 [2] is reported as > 250 µM and the IC50 [3] is reported as “Not Active”. For the same molecule, the IC50 [4] was 1 µM, the IC50 [5] was 248 µM and the IC50 [6] was 1 µM. For the same molecule, the IC50 [7] was 8.8 µM, the solubility [8] was 687 µM (≈ 317 µg/mL) and the inhibition [9] was “inactive”. For the same molecule, the IC50 [10] was “Not Active”.

From ChEMBL document CHEMBL4680176, “Identification of DOT1L inhibitors by structure-based virtual screening adapted from a nucleoside-focused library” (Eur J Med Chem, 2020)
